Experiments:
[1] = molecular target: T1, human dopamine D4 receptor (Homo sapiens, UniProt P21917); experiment: D4 dopaminergic activity: [3H]Spiperone competition binding (assay similar to the one described); conditions: assay similar to the [3H]Spiperone binding assay on clonal cell lines expressing the human dopamine D4 receptor
T1 construct: expressed in transfected cells
T1 sequence (P21917 1-419): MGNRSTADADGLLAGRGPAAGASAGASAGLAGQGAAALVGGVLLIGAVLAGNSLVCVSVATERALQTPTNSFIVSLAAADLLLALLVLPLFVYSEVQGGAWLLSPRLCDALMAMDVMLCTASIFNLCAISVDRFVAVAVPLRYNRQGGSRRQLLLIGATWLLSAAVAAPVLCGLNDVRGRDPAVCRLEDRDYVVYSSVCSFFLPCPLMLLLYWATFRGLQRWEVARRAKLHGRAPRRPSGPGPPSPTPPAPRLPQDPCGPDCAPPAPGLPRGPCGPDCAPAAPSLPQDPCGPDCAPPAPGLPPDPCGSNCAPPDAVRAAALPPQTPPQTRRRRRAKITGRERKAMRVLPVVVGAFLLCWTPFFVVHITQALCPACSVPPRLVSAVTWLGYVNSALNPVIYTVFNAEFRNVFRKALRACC
Description: The D4 dopaminergic activity of the compounds of the present invention may be determined by the following procedure.
(§1) The determination of D4 dopaminergic activity has been described by Van Tol et al., Nature, vol. 350, 610 (London, 1991). Clonal cell lines expressing the human dopamine D4 receptor are harvested and homogenized (teflon pestle) in a 50 mM Tris:HCI (pH 7.4 at 4°C) buffer containing 5 mM EDTA, 1.5 mM calcium chloride (CaCl2), 5 mM magnesium chloride (MgCL2), 5mM potassium chloride (KCI) and 120 mM sodium chloride (NaCI). The homogenates are centrifugated for 15 min. at 39,000 g, and the resulting pellets resuspended in a buffer at a concentration of 150-250 µg/ml. For saturation experiments, 0.25 ml aliquots of tissue homogenate are incubated in duplicate with increasing concentrations of [^3H] Spiperone (70.3 Ci/mmol; 10-3000 pM final concentration) for 30-120 minutes at 22°C in a total volume of 1 ml. […] Assays are terminated by rapid filtration through a Titertek cell harvester and the filters subsequently monitored for tritium as described by Sunahara, R.K. et al., Nature, 346, 76-80 (1990). […] Both saturation and competition binding data are analyzed by the non-linear least square curve-fitting program Ligand run on a digital Micro-PP-11 as described by Sunahara et al.

D2 receptor = D2 receptor (Homo sapiens, UniProt P14416); experiment: D2 receptor binding in an assay similar to the D4 [3H]Spiperone binding assay; conditions: assay similar to the described [3H]Spiperone binding assay
D2 receptor, sequence (P14416 whole entry): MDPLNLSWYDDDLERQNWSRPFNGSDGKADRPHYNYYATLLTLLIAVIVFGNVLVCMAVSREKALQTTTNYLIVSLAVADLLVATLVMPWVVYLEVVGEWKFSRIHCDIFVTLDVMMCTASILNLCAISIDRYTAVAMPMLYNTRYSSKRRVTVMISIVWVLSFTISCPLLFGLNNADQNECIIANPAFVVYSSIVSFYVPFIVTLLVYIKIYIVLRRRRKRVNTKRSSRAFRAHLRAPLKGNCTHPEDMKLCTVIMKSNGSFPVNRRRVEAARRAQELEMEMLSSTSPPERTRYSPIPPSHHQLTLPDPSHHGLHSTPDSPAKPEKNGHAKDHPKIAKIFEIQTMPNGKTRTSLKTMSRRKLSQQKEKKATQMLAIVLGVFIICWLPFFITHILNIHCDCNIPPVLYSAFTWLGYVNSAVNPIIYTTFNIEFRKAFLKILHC
Description: as §1

SMILES | IC50 [1] | IC50 (D2 receptor)
O=c1[nH]c2ccccc2n1CCCN1CCN(c2ccc(Cl)cn2)CC1 [Example 1, 1-{3-[4-(5-Chloro-pyridin-2-yl)-piperazin-1-yl]-propyl}-1,3-dihydrobenzoimidazol-2-one] | ≤ 110 nM | 1000 to 3300 nM
O=c1[nH]c2ccccc2n1CCCN1CCN(c2ccc(C(F)(F)F)cn2)CC1 [Example 4, 1-{3-[4-(5-Trifluoromethyl-pyridin-2-yl)-piperazine-1-yl]-propyl}-1,3-dihydrobenzoimidazol-2-one] | ≤ 110 nM | 1000 to 3300 nM
